In this experiment the target is human PKR1 receptors (Homo sapiens (Human), UniProt Q8TCW9). As to the kind of experiment: PKR1 antagonist assay: block of PK1-mediated intracellular calcium release (FLIPR Tetra). The format is cell-based. The conditions noted are these: RBL2H3 cells expressing human PKR1; stimulation with PK1 at EC80; calcium fluorescence. The procedure: Prokineticin receptor 1 (PKR1) antagonists may be functionally assessed by measurement of change in intracellular calcium levels induced by Gq mediated increase in inositol triphosphate (IP3) levels. The ability of a compound to block the intracellular release of calcium mediated by PK1 in RBL2H3 cells expressing human PKR1 receptors is determined as a measure of the compound's antagonist activity in vitro.
Chain of human PKR1 receptors (Q8TCW9 whole entry): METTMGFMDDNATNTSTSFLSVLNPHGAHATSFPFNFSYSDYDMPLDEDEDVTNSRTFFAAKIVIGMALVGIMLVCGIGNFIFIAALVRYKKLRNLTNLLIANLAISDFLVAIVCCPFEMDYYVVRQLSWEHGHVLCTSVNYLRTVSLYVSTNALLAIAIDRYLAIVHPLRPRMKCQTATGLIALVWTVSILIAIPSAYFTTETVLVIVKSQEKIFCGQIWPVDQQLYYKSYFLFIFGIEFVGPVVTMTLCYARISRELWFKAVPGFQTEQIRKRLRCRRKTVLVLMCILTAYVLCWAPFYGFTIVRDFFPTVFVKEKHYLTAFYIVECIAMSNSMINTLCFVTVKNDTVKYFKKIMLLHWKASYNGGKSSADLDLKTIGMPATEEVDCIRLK
Approximately 10,000 cells per assay well are seeded in normal culture medium in a 384 well plate (Corning). Twenty-four hours after seeding, the cells are loaded with a calcium sensitive fluorescent dye by replacing the culture medium with assay buffer (1× Hanks buffered saline, 25 mM HEPES, 0.1% w/v fatty acid free BSA (bovine serum albumin), pH 7.4) containing 1 mM probenecid and 1× Calcium 5 Reagent (Molecular Devices). Cells are incubated at 37° C. for 1 hour to allow for dye uptake.
To test for antagonist activity, test compounds at a final concentration range between 0.32 nM-10 μM (diluted in assay buffer) are added to the assay wells and allowed to incubate for 10 minutes prior to stimulation with PK1. After incubation with test compounds the assay plate is placed in a FLIPR Tetra (Molecular Devices) and PK1 (diluted in assay buffer) is added at the determined EC80 concentration (final). Ligand-dependent changes in intracellular calcium levels are determined by measuring changes in fluorescence of the dye at […] following excitation at 485 nm.

Where a name gives a salt, the structure may show the parent alone.

Consider `CNc1cc(C(=O)N2CCCC(c3ccc(Cl)cc3C(F)(F)F)C2)ccn1` (centres unmarked) [Example 57, 4-({3-[4-Chloro-2-(trifluoromethyl)phenyl]piperidin-1-yl}carbonyl)-N-methylpyridin-2-amine], for which the IC50 came to 50 nM.

Turning to `Cc1ccc(C2CCCN(C(=O)c3ccnc(N(C)C)c3)C2)cc1` (single isomer, unassigned) [Example 51, N,N-Dimethyl-4-{[3-(4-methylphenyl)piperidin-1-yl]carbonyl}pyridin-2-amine], the IC50 stood at 310 nM.

Turning to `Cc1cccc(C2CCCN(C(=O)c3ccnc(N(C)C)c3)C2)c1` (centres unmarked) [Example 13, N,N-Dimethyl-4-{[3-(3-methylphenyl)piperidin-1-yl]carbonyl}pyridin-2-amine], the IC50 was determined as 1920 nM.

For the molecule `CNc1cc(C(=O)N2CCCC(c3ccccc3C(F)(F)F)C2)ccn1` (centres unmarked) [Example 54, N-Methyl-4-({3-[2-(trifluoromethyl)phenyl]piperidin-1-yl}carbonyl)pyridin-2-amine], the IC50 came to 230 nM.

Take `CN(C)c1cc(C(=O)N2CCCC(c3ccc(Cl)cc3)C2)ccn1` (centres unmarked) [Example 16, 4-{[3-(4-Chlorophenyl)piperidin-1-yl]carbonyl}-N,N-dimethylpyridin-2-amine]: the 50% inhibitory concentration (IC50) stood at 270 nM.

With `CN(C)c1cc(C(=O)N2CCCC(O)(c3ccc(F)cc3)C2)ccn1` (centres unmarked) [Example 117, 1-{[2-(Dimethylamino)pyridin-4-yl]carbonyl}-3-(4-fluorophenyl)piperidin-3-ol], the IC50 stood at 3940 nM.

On to `CN(C)c1cc(C(=O)N2CCC[C@@H](c3ccc(Cl)cc3)C2)ccn1` [Example 17, 4-{[(3S)-3-(4-Chlorophenyl)piperidin-1-yl]carbonyl}-N,N-dimethylpyridin-2-amine], for which the IC50 stood at 840 nM.

As for `COc1ccc(C2CCCCN(C(=O)c3ccnc(N(C)C)c3)C2)cc1` (centres unmarked) [Example 109, 4-{[3-(4-Methoxyphenyl)azepan-1-yl]carbonyl}-N,N-dimethylpyridin-2-amine], the IC50 is 960 nM.

Regarding `CC(C)Nc1cc(C(=O)N2CCCC(c3ccc(Cl)cc3)C2)ccn1` (centres unmarked) [Example 8, 4-{[3-(4-Chlorophenyl)piperidin-1-yl]carbonyl}-N-(propan-2-yl)pyridin-2-amine], the IC50 was 3270 nM.

In the case of `CN(C)c1cc(C(=O)N2CCCC(c3ccc(C(F)(F)F)cc3)C2)ccn1` (centres unmarked) [Example 44, N,N-Dimethyl-4-({3-[4-(trifluoromethyl)phenyl]piperidin-1-yl}carbonyl)pyridin-2-amine formate], the IC50 is 4400 nM.

As for `CCn1cc(C(=O)N2CCCC(c3ccc(Cl)cc3)C2)cn1` (centres unmarked) [Example 90, 3-(4-Chlorophenyl)-1-[(1-ethyl-1H-pyrazol-4-yl)carbonyl]piperidine], the IC50 worked out at 660 nM.

In the case of `Cc1ccccc1C1CCCN(C(=O)c2ccnc(N(C)C)c2)C1` (centres unmarked) [Example 14, N,N-Dimethyl-4-{[3-(2-methylphenyl)piperidin-1-yl]carbonyl}pyridin-2-amine], the IC50 worked out at 190 nM.

For `CNc1cc(C(=O)N2CCCC(c3ccc(OC)cc3C(F)(F)F)C2)cnn1` (centres unmarked) [Example 81, 5-({3-[4-Methoxy-2-(trifluoromethyl)phenyl]piperidin-1-yl}carbonyl)-N-methylpyridazin-3-amine], the IC50 is 130 nM.

As for `Cc1cc(Cl)cc(C)c1C1CCCN(C(=O)c2ccnc(N(C)C)c2)C1` (centres unmarked) [Example 68, 4-{[3-(4-Chloro-2,6-dimethylphenyl)piperidin-1-yl]carbonyl}-N,N-dimethylpyridin-2-amine], the IC50 was 1540 nM.

On to `CCc1cc(C(=O)N2CCCC(c3ccccc3OC)C2)ccn1` (centres unmarked) [Example 59, 2-Ethyl-4-{[3-(2-methoxyphenyl)piperidin-1-yl]carbonyl}pyridine], for which the concentration for half-maximal inhibition (IC50) was 1600 nM.

With `CNc1cc(C(=O)N2CCCC(c3ccc(OC)cc3C)C2)cnn1` (centres unmarked) [Example 79, 5-{[3-(4-Methoxy-2-methylphenyl)piperidin-1-yl]carbonyl}-N-methylpyridazin-3-amine], the IC50 was found to be 130 nM.

Turning to `Cn1cc(C(=O)N2CCCC(c3ccc(Cl)cc3)C2)cn1` (centres unmarked) [Example 89, 3-(4-Chlorophenyl)-1-[(1-methyl-1H-pyrazol-4-yl)carbonyl]piperidine], the 50% inhibitory concentration (IC50) amounted to 1280 nM.

Consider `Cc1cc(C(=O)N2CCCC(c3ccc(Cl)cc3C)C2)cnn1` (centres unmarked) [Example 85, 5-{[3-(4-Chloro-2-methylphenyl)piperidin-1-yl]carbonyl}-3-methylpyridazine], for which the IC50 is 1140 nM.

In the case of `CCOc1cc(Cl)ccc1C1CCCN(C(=O)c2cnnc(N(C)C)c2)C1` (centres unmarked) [Example 84, 5-{[3-(4-Chloro-2-ethoxyphenyl)piperidin-1-yl]carbonyl}-N,N-dimethylpyridazin-3-amine], the IC50 came out at 90 nM.

Take `Cn1cc(C(=O)N2CCCC(c3ccc(Cl)cc3C(F)(F)F)C2)c(N)n1` (single isomer, unassigned) [Example 118, 4-({3-[4-Chloro-2-(trifluoromethyl)phenyl]piperidin-1-yl}carbonyl)-1-methyl-1H-pyrazol-3-amine]: the IC50 is over 10000 nM.

Consider `COc1cc(C(=O)N2CCCC(c3ccc(C)cc3)C2)ccn1` (centres unmarked) [Example 34, 2-Methoxy-4-{[3-(4-methylphenyl)piperidin-1-yl]carbonyl}pyridine], for which the IC50 is 5270 nM.

Consider `CCn1cc(C(=O)N2CCCC(c3ccc(Cl)cc3C(F)(F)F)C2)cn1` (centres unmarked) [Example 98, 3-[4-Chloro-2-(trifluoromethyl)phenyl]-1-[(1-ethyl-1H-pyrazol-4-yl)carbonyl]piperidine], for which the IC50 is 170 nM.

For `Cc1ccc(C2CCCN(C(=O)c3ccnc(C)c3)C2)cc1` (centres unmarked) [Example 12, 2-Methyl-4-{[3-(4-methylphenyl)piperidin-1-yl]carbonyl}pyridine], the IC50 was determined as 2800 nM.

`COc1ccc(C2CCCCN(C(=O)c3cnnc(N(C)C)c3)C2)cc1` (centres unmarked) [Example 114, 5-{[3-(4-Methoxyphenyl)azepan-1-yl]carbonyl}-N,N-dimethylpyridazin-3-amine]: the IC50 was 1430 nM.

With `CN(C)c1cc(C(=O)N2CCCC(c3ccc(Cl)cc3C(F)(F)F)C2)ccn1` (centres unmarked) [Example 7, 4-({3-[4-Chloro-2-(trifluoromethyl)phenyl]piperidin-1-yl}carbonyl)-N,N-dimethylpyridin-2-amine], the IC50 was 100 nM.

Regarding `COc1ccc(C2CCCN(C(=O)c3cnnc(N(C)C)c3)C2)c(C(F)(F)F)c1` (centres unmarked) [Example 82, 5-({3-[4-Methoxy-2-(trifluoromethyl)phenyl]piperidin-1-yl}carbonyl)-N,N-dimethylpyridazin-3-amine], the IC50 was found to be 210 nM.

Regarding `CCOc1cc(Cl)ccc1C1CCCN(C(=O)c2ccnc(N(C)C)c2)C1` (centres unmarked) [Example 61, 4-{[3-(4-Chloro-2-ethoxyphenyl)piperidin-1-yl]carbonyl}-N,N-dimethylpyridin-2-amine], the IC50 was found to be 100 nM.

In the case of `COc1cc(C(=O)N2CCCC(c3ccc(Cl)cc3C)C2)cnn1` (centres unmarked) [Example 74, 5-{[3-(4-Chloro-2-methylphenyl)piperidin-1-yl]carbonyl}-3-methoxypyridazine], the IC50 amounted to 350 nM.

As to `CCc1cc(C(=O)N2CCCC(c3ccc(C)cc3)C2)ccn1` (centres unmarked) [Example 20, 2-Ethyl-4-{[3-(4-methylphenyl)piperidin-1-yl]carbonyl}pyridine], the IC50 was found to be 1210 nM.

Turning to `CNc1cc(C(=O)N2CCCC(c3ccc(OC)cc3)C2)ccn1` (centres unmarked) [Example 55, 4-{[3-(4-Methoxyphenyl)piperidin-1-yl]carbonyl}-N-methylpyridin-2-amine hemi formate], the IC50 turned out to be 350 nM.

With `CNc1cc(C(=O)N2CCCC(c3ccc(C)cc3)C2)ccn1` (centres unmarked) [Example 11, N-Methyl-4-{[3-(4-methylphenyl)piperidin-1-yl]carbonyl}pyridin-2-amine], the IC50 was found to be 290 nM.

For the molecule `CN(C)c1cc(C(=O)N2CCCC(c3ccc(Cl)cc3Cl)C2)ccn1` (centres unmarked) [Example 2, 4-{[3-(2,4-Dichlorophenyl)piperidin-1-yl]carbonyl}-N,N-dimethylpyridin-2-amine], the half-maximal inhibitory concentration (IC50) turned out to be 190 nM.

Turning to `Cc1cc(Cl)ccc1C1CCCN(C(=O)c2cn(C)nc2C)C1` (centres unmarked) [Example 87, 3-(4-Chloro-2-methylphenyl)-1-[(1,3-dimethyl-1H-pyrazol-4-yl)carbonyl]piperidine], the IC50 is 200 nM.

For `O=C(c1ccnc(Cl)c1)N1CCCC(c2ccc(Cl)cc2)C1` (centres unmarked) [Example 29, 2-Chloro-4-{[3-(4-chlorophenyl)piperidin-1-yl]carbonyl}pyridine], the IC50 turned out to be 3290 nM.

`CNc1cc(C(=O)N2CCCC(c3ccc(Cl)cc3C)C2)ccn1` (centres unmarked) [Example 31, 4-{[3-(4-Chloro-2-methylphenyl)piperidin-1-yl]carbonyl}-N-methylpyridin-2-amine]: the IC50 was determined as 30 nM.

As to `CCc1cc(C(=O)N2CCCC(c3ccc(Cl)cc3C)C2)ccn1` (centres unmarked) [Example 4, 4-{[3-(4-Chloro-2-methylphenyl)piperidin-1-yl]carbonyl}-2-ethylpyridine], the IC50 came to 70 nM.

For the molecule `Cc1ccc(C2CCCN(C(=O)c3ccnc(N4CC(F)(F)C4)c3)C2)cc1` (centres unmarked) [Example 38, 2-(3,3-Difluoroazetidin-1-yl)-4-{[3-(4-methylphenyl)piperidin-1-yl]carbonyl}pyridine], the IC50 turned out to be 6500 nM.

`CNc1cc(C(=O)N2CCCC(c3ccc(Cl)cc3C)C2)cnn1` (centres unmarked) [Example 71, 5-{[3-(4-Chloro-2-methylphenyl)piperidin-1-yl]carbonyl}-N-methylpyridazin-3-amine]: the IC50 is 70 nM.

Values taken from patent US9790201B2, “Piperidine and azepine derivatives as prokineticin receptor modulators” (TAKEDA PHARMACEUTICAL COMPANY LIMITED, priority 2013, dated 2017).
